# What was measured:
# PKM2 = PKM2 (Homo sapiens, UniProt P14618); assay: PKM2 activation assay (ATP formation measured by Kinase Glo); format: biochemical; conditions: 2 nM PKM2, 30 min pre-incubation, 75 μM ADP, 15 μM PEP, ATP formation after 30 min
# Description: Compounds were pre-incubated with 2 nM PKM2 in reaction buffer (50 mM Tris-HCl, pH 8.0, 200 mM KCl, 30 mM MgCl2, 2 mM Dithiothreitol (DTT), 5% Dimethyl sulfoxide (DMSO)) for 30 min at ambient temperature. Adenosine diphosphate (ADP) and Phosphoenolpyruvic acid (PEP) were then added to final concentrations of 75 μM and 15 μM, respectively. After 30 min, Adenosine triphosphate (ATP) formation was measured by Kinase Glo (Promega, Madison, Wis.), and AC50 values were determined using Prism (GraphPad Software, Inc., La Jolla, Calif.).
# A549 cells = assay: A549 cell viability by ATPlite assay; format: cell-based; conditions: Homo sapiens, A549 cells in BME media lacking nonessential amino acids + 5% dialyzed serum, 72 hours
# Description: A549 cells were seeded at 5000 cells per well (in 96-well plate) in Basal Medium Eagle (BME) media lacking nonessential amino acids+5% dialyzed serum. After 18 hours, a negative control (i.e., DMSO only) or a representative compound in 0.1% final concentration DMSO was added. After 72 hours, cell viability was determined by ATPlite assay and EC50 values were determined using Prism GraphPad Software (La Jolla, Calif.).
# Chain of PKM2 (P14618 whole entry): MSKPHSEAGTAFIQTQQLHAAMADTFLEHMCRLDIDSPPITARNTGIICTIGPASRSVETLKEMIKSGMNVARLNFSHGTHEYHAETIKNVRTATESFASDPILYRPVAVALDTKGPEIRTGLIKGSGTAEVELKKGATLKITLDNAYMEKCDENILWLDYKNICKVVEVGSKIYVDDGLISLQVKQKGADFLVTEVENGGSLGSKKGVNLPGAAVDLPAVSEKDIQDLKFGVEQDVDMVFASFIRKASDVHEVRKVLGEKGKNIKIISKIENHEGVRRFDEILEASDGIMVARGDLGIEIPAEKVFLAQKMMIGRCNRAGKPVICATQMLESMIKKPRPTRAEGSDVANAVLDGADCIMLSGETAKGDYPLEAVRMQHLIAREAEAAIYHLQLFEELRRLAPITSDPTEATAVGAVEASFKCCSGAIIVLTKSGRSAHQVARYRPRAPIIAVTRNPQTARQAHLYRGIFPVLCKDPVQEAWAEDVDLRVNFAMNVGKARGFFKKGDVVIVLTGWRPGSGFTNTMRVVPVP
AC50 (PKM2),EC50 (A549 cells),Compound
> 50 nM,,"Nc1cccc(Br)c1CN(CCC1CCS(=O)(=O)CC1)C(=O)c1cc(C(F)(F)F)n[nH]1 [Compound Ih, N-(2-amino-6-bromobenzyl)-N-(2-(1,1-dioxidotetrahydro-2H-thiopyran-4-yl)ethyl)-3-(trifluoromethyl)-1H-pyrazole-5-carboxamide]"
< 15 nM,,"O=C(c1cc(C(F)(F)F)n[nH]1)N(CCC1CCS(=O)(=O)CC1)Cc1c(F)ccc2c(Cl)c[nH]c12 [Compound Ie, N-(2-(1,1-dioxidotetrahydro-2H-thiopyran-4-yl)ethyl)-N-((3-chloro-6-fluoro-1H-indol-7-yl)methyl)-3-(trifluoromethyl)-1H-pyrazole-5-carboxamide]"
> 50 nM,,"O=C(c1cc(C(F)(F)F)n[nH]1)N(CCC1CCS(=O)(=O)CC1)Cc1c(F)cccc1Cl [Compound Ij, N-(2-chloro-6-fluorobenzyl)-N-(2-(1,1-dioxidotetrahydro-2H-thiopyran-4-yl)ethyl)-3-(trifluoromethyl)-1H-pyrazole-5-carboxamide]"
15 to 50 nM,> 100 nM,"O=C(c1cc(C(F)(F)F)n[nH]1)N(CCC1CCS(=O)(=O)CC1)Cc1c(F)cccc1Br [Compound Ib, N-(2-bromo-6-fluorobenzyl)-N-(2-(1,1-dioxidotetrahydro-2H-thiopyran-4-yl)ethyl)-3-(trifluoromethyl)-1H-pyrazole-5-carboxamide]"
< 15 nM,,"Nc1cccc(Cl)c1CN(CCC1CCS(=O)(=O)CC1)C(=O)c1cc(C(F)(F)F)n[nH]1 [Compound Ia, N-(2-amino-6-chlorobenzyl)-N-(2-(1,1-dioxidotetrahydro-2H-thiopyran-4-yl)ethyl)-3-(trifluoromethyl)-1H-pyrazole-5-carboxamide]"
< 15 nM,,"O=C(c1cc(C(F)(F)F)n[nH]1)N(CCC1CCS(=O)(=O)CC1)Cc1c(F)ccc2cc[nH]c12 [Compound Id, N-(2-(1,1-dioxidotetrahydro-2H-thiopyran-4-yl)ethyl)-N-((6-fluoro-1H-indol-7-yl)methyl)-3-(trifluoromethyl)-1H-pyrazole-5-carboxamide]"
15 to 50 nM,> 100 nM,"O=C(c1cc(C(F)(F)F)n[nH]1)N(CCC1CCS(=O)(=O)CC1)Cc1c(F)ccc2cn[nH]c12 [Compound Ig, N-(2-(1,1-dioxidotetrahydro-2H-thiopyran-4-yl)ethyl)-N-((6-fluoro-1H-indazol-7-yl)methyl)-3-(trifluoromethyl)-1H-pyrazole-5-carboxamide]"
15 to 50 nM,50 to 100 nM,"Cc1ccc(F)c(CN(CCC2CCS(=O)(=O)CC2)C(=O)c2cc(C(F)(F)F)n[nH]2)c1 [Compound Ic, N-(2-(1,1-dioxidotetrahydro-2H-thiopyran-4-yl)ethyl)-N-(2-fluoro-5-methylbenzyl)-3-(trifluoromethyl)-1H-pyrazole-5-carboxamide]"
15 to 50 nM,> 100 nM,"NCc1ccc(F)c(CN(CCC2CCS(=O)(=O)CC2)C(=O)c2cc(C(F)(F)F)n[nH]2)c1 [Compound If, N-(2-(1,1-dioxidotetrahydro-2H-thiopyran-4-yl)ethyl)-N-(2-fluoro-5-aminomethylbenzyl)-3-(trifluoromethyl)-1H-pyrazole-5-carboxamide]"
> 50 nM,50 to 100 nM,"Nc1ccccc1CN(CCC1CCS(=O)(=O)CC1)C(=O)c1cc(C(F)(F)F)n[nH]1 [Compound Ii, N-(2-aminobenzyl)-N-(2-(1,1-dioxidotetrahydro-2H-thiopyran-4-yl)ethyl)-3-(trifluoromethyl)-1H-pyrazole-5-carboxamide]"
